Results taken from patent US8563248B2, “Compositions and methods for detection of colorectal cancer” (priority 2005, dated 2013).

What was measured:
IBABP-L mRNA = assay: Regulation of IBABP-L expression in Caco-2 cells, quantitative RT-PCR; assay type: cell-based, human; conditions: 24 h, normalized to ARPP0
Procedure: (§1) The expression of IBABP-L and IBABP was measured by quantitative RT-PCR. The mRNA copy number of each variant is normalized to the expression the housekeeping gene ARPP0. Values in the figure represent the average of three experiments with each replicate performed in duplicate.
(§2) To determine the relative expression levels of IBABP-L and IBABP, a two-step quantitative RT-PCR procedure was used. In the first step, complementary DNA (cDNA) was synthesized from total RNA. […] In the second step, quantitative PCT (QPCR) was carried out on a Mx 3000P Real-Time PCR System (Stratagene, La Jolla, Calif.) using a solution containing diluted cDNA (1:20; 2.0 μl), 1×SYBR Green PCR Master Mix (Applied Biosystems, Foster City, Calif.), and primers for IBABP-L, IBABP, or ARPP0 (0.25 μM). […]
(§3) Caco-2 cells were seeded in six-well plates (Falcon) at 2×10^5 cells/well. […] Cells were harvested, cellular RNA was isolated using the RNeasy Mini Kit (Qiagen) according to manufacturer instruction, and expression of IBABP variants was determined by QPCR as described above. […]

IBABP mRNA = assay: Regulation of IBABP expression in Caco-2 cells, quantitative RT-PCR; assay type: cell-based, human; conditions: 100 nM, 24 h, normalized to ARPP0
Procedure: as §1, §2, §3

BAR = biological target: T1, BAR (Homo sapiens, UniProt Q96RI1); conditions: gene-selective BAR modulator; cited from earlier work
T1 sequence (Q96RI1 1-486): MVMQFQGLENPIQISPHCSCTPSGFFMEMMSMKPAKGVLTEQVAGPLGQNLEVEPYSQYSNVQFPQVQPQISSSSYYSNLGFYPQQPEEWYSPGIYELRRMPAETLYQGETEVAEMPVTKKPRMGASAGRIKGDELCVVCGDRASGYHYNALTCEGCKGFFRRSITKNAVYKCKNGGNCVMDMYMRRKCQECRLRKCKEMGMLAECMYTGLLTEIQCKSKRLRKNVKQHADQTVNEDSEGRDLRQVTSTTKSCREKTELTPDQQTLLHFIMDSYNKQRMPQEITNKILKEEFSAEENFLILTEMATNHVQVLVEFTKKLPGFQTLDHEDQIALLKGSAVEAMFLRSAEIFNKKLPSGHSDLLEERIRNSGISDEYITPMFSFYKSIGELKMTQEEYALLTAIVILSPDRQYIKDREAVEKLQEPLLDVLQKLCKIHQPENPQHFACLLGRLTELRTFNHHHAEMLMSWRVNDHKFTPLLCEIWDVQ

SMILES: CC1=C(/C=C/C(C)=C\C=C\C(C)=C\C(=O)O)C(C)(C)CCC1 [9cRA, 9-cis-retinoic acid]
- effect on expression of IBABP-L (IBABP-L mRNA; 100 nM): without effect
- effect on expression of IBABP (IBABP mRNA): up-regulated

SMILES: CCCCCCOc1c(\C(C)=C/C=C/C(C)=C/C(=O)O)cc(C(C)C)cc1C(C)C [AGN34]
- action on CYP7A1 (BAR): agonist
- action on IBABP (BAR): antagonist
- action on SHP (BAR): neutral

SMILES: C[C@H](CCC(=O)O)[C@H]1CC[C@H]2[C@@H]3[C@H](O)C[C@@H]4C[C@H](O)CC[C@]4(C)[C@H]3CC[C@]12C [CDCA, chenodeoxycholic acid]
- effect on expression of IBABP-L (IBABP-L mRNA; 100 μM): without effect
